These results are taken from patent publication US11191773B2, “Methods of treatment for bacterial infections” (President and Fellows of Harvard College, priority 2017, dated 2021).

The test system of assay [1] is polymyxin-resistant E. coli (clinical isolate from Brigham and Women's Hospital). The format is cell-based. The conditions noted are these: 37° C. for 24 h.
Experimental: The effect of novobiocin/polymyxin combination was further assessed in polymyxin-resistant strains using checkerboard microdilution assays. In these assays, polymyxin-resistant strains (E. coli (clinical isolate from Brigham and Women's Hospital); A. baumannii (ATCC: 19606) mutant that is novobiocin and polymyxin-resistant; and K. pneumoniae (clinical isolate from Brigham and Women's Hospital)) were grown at 37° C. for 24 h.
Assay [2] deals with E. coli strain ATCC 25922. As to the kind of experiment: Neutropenic mouse thigh infection efficacy. It counts as in vivo. The protocol: Female CD-1 mice from Charles River Laboratories were allowed to acclimate for 5 days prior to start of study. Animals were housed four per cage with free access to food and water. Mice received two doses of cyclophosphamide on days −4 and −1 with 150 mg/kg and 100 mg/kg delivered IP, respectively. All procedures were performed to NeoSome IACUC policies and guidelines as well as OLAW standards.
E. coli strain ATCC 25922 was prepared for infection from an overnight plate culture. A portion of the plate was resuspended in sterile saline and adjusted to an OD of 0.15 at 625 nm. The adjusted bacterial suspension was further diluted to target an infecting inoculum of 1.5×10^5 CFU/mouse, the actual inoculum size for E. coli was 1.45×10^5 CFU/mouse. Plate counts of the inoculum was performed to confirm inoculum concentration.
Mice were inoculated with 100 μL of the prepared bacterial suspension via intramuscular injection into the right rear thigh.
Beginning at two hours post infection, mice were dosed with test agents subcutaneously at 10 mL/kg. A second dose of test agents was delivered at 6 hours post infection. For co-administered therapy, test agents were delivered separately at two different injection sites. Four animals were dosed per group. One group of four mice were euthanized at initiation of therapy (T=2 h) and CFUs determined. All remaining mice were euthanized at 26 hours post infection. At termination, thighs were aseptically excised, weighed, and homogenized to a uniform consistency in 2 mL of sterile saline. The homogenate was serially diluted and plated on bacterial growth media. The CFUs were enumerated after overnight incubation. The average and standard deviations for each group were determined.
Neutropenic mice infected with E. coli were treated with novobiocin, polymyxin B, or a combination of the two for the evaluation of efficacy is a thigh infection model.

Assay [3] relates to Gram-negative pathogens. Kind of assay: Checkerboard microdilution assays between polymyxin B and novobiocin (FIG. 1A-1F). It counts as cell-based. To be noted: six strains of FIG. 1A-1F, 37° C. for 24 h. For orientation: In broth dilution the organism is exposed to a series of concentrations in liquid medium.
Text: Checkerboard data are representative of at least three biological replicates.
The test system of assay [4] is Acinetobacter baumannii Novo^R. Kind of assay: Minimal inhibitory concentrations, checkerboard microdilution. The format is cell-based. To be noted: Acinetobacter baumannii, 24 h. The protocol:
(§1) Checkerboard microdilution assays between polymyxin B and novobiocin were performed in wild-type strains (unless otherwise noted) grown at 37° C. for 24 h. Checkerboard data (FIG. 1A-1F) are representative of at least three biological replicates. The following strains were tested: A) Wild-type Escherichia coli, ATCC 25922; B) Wild-type Enterobacter cloacae; ATCC 13047) Wild-type Klebsiella pneumoniae, ATCC 700721; D) Wild-type Pseudomonas aeruginosa, ATCC 15692 (PAO1); E) Wild-type Acinetobacter baumannii, ATCC 19606; F) novobiocin-resistant Acinetobacter baumannii, ATCC 19606 gyrB(R150C).

For assay [5], the system named is Klebsiella pneumoniae. The assay is described as above. It counts as cell-based. To be noted: Klebsiella pneumoniae; grown at 37° C. for 24 h; read-out: MIC. As to the method:
as §1

Assay [6] relates to Escherichia coli. The assay is described as above. The format is cell-based. To be noted: Escherichia coli; grown at 37° C. for 24 h; read-out: MIC. As to the method:
as §1

Assay [7] concerns Pseudomonas aeruginosa. Described as above. To be noted: Pseudomonas aeruginosa; grown at 37° C. for 24 h; read-out: MIC. It counts as cell-based. As to the method: as §1
Assay [8] concerns wild-type A. baumannii. Kind of assay: Checkerboard microdilution assay with PMB, PMBN, novobiocin, novobiocin aglycone. The format is cell-based.
Assay [9] has as its system lptB1. As to the kind of experiment: Disk diffusion assay. The format is cell-based, E. coli. The conditions noted are these: Escherichia coli. As to the method:
(§2) Zones of inhibition were measured in disk diffusion assays of wild type, IptB1, and suppressors IptB1(R144H) and IptB1(G33C) pictured in FIG. 6B. Assays were conducted with 6-mm disks. Numbers outside of parentheses report the diameter of the zone of total growth inhibition (in mm), while numbers inside parenthesis report the diameter of the zone of partial growth inhibition.
(§3) Disk diffusion assays were performed as described in Sherman et al., Proc. Natl. Acad. Sci. USA 2014, 111, 4982-4987. Premade Sensi-Disc (BD-Beckton, Dickinson and Company) were used for bacitracin 10IU, erythromycin 15 μg, novobiocin 30 μg, and rifampin 5 μg.

For assay [10], the system named is wild type. As to the kind of experiment: Disk diffusion assay. The format is cell-based, E. coli. The conditions noted are these: Escherichia coli; 6-mm disks; bacitracin 10IU, erythromycin 15 μg, novobiocin 30 μg, rifampin 5 μg, nalidixic acid 5 μg; read-out: Zone of inhibition, diameter of the zone of total growth inhibition. As to the method: as §2, §3
(In general: A growth-free zone around the sample is the usual read-out of agar diffusion tests.)

Assay [11] has as its system lptB1(G33C). As to the kind of experiment: Disk diffusion assay. The conditions noted are these: Escherichia coli, read-out: Zone of inhibition, diameter of the zone of total growth inhibition. The format is cell-based, E. coli. The protocol: as §2, §3
In assay [12] the test system is lptB1(R144H). Kind of assay: Disk diffusion assay. The format is cell-based, E. coli. The conditions noted are these: Escherichia coli, read-out: Zone of inhibition, diameter of the zone of total growth inhibition. The protocol:
as §2, §3

For assay [13], the system named is novobiocin-resistant A. baumannii 19606 gyrB(R150C) point mutant (Novo^R). It counts as cell-based.
In assay [14] the test system is ΔtolC. As to the kind of experiment: Minimum inhibitory concentration assay. The format is cell-based, E. coli. The conditions noted are these: Escherichia coli, 15 h, read-out: Minimum inhibitory concentration. As to the method:
(§4) We wondered whether it would be possible to separate novobiocin's ability to suppress the IptFG(ch) defects in vivo from its activity against DNA gyrase, its presumed primary target. […] Minimum inhibitory concentrations were measured after a 15-hr incubation period at 37° C.
(§5) Overnight cultures were prepared by transferring 5 mL of sterile LB Miller media to culture tubes and inoculating with the corresponding organism. The tubes were allowed to shake at 220 rpm, 37° C. overnight. 15 μL of overnight culture was diluted in 15 mL of LB Miller in a Falcon tube and was vortexed to mix. In a 96-well plate, 100 μL of diluted culture was added to each well. To column #1, an additional 100 μL of diluted culture and test compound was added (93.7 μL culture+6.35 μL 10 mg/mL novobiocin) or (94.2 μL culture+5.87 μL 10 mg/mL 1-adamantyl-novobiocin) such that the highest concentration tested was 500 μM. Transferred 100 μL from column #1 into column #2, etc, and mixed each time thoroughly. Repeated serial dilution until column #11. Incubated the plate at 37° C. overnight (˜16 h) and read the turbidity (OD600) using a Spectramax 384 plus plate reader (Molecular Devices).

For assay [15], the system named is lptB1. Kind of assay: Minimum inhibitory concentration assay. It counts as cell-based, E. coli. The conditions noted are these: Escherichia coli, 15 h, read-out: Minimum inhibitory concentration. As to the method:
as §4, §5

Assay [16] relates to wild type. Kind of assay: Minimum inhibitory concentration assay. The format is cell-based, E. coli. The conditions noted are these: Escherichia coli, 15 h, read-out: Minimum inhibitory concentration. As to the method:
as §4, §5

[17] abbreviates: Novobiocin 200 mg/kg (total 400) BID/SC.

As usually defined, the zone of inhibition is the size of the clear area around the sample on an inoculated plate.

Each structure is given as a SMILES string. Values after ≈ are worked out from the molar mass of the structure shown. “Also recorded” adds a separate entry of the source. Where two headings read alike, the source gives them in different places.

Turning to `CO[C@@H]1[C@@H](OC(N)=O)[C@@H](O)[C@H](Oc2ccc3c(O)c(NC(=O)c4ccc(O)c(CC=C(C)C)c4)c(=O)oc3c2C)OC1(C)C` [Novobiocin, novobiocin], the “synergy with polymyxin B” value is “synergizes with polymyxin B” in assay [1] and “synergizes with polymyxin B to kill Gram-negative pathogens in vitro” in assay [3]. In addition, the “change in log10 CFU/g of thigh from 2 hour control” value in assay [2] (setting [17]) is recorded as 3.58 log10 CFU/g of thigh. Besides, the “change in log10 CFU/g of thigh from 26 hour controls” value in assay [2] (setting [17]) is −0.51 log10 CFU/g of thigh. Moreover, in assay [2] (Novobiocin delivered at 200 mg/kg), the “activity against this isolate” value is “did not demonstrate significant activity”. Moreover, the “Average log10 CFU/g of thigh” value in assay [2] (neutropenic CD-1 mice, Novobiocin 200 mg/kg (total 400) BID/SC, 26 hours post infection) is 9.12 log10 CFU/g of thigh. The MIC was 190 µg/mL in assay [4]; 270 µg/mL in assay [5]; 20 µg/mL in [6]; more than 450 µg/mL in [7]; 2 µM (≈ 1.23 µg/mL) in assay [14]; less than 0.5 µM in assay [15]. Moreover, in assay [16], the MIC fell in the range of 62.5 to 125 µM (≈ 38.3 to 76.6 µg/mL). In addition, the “synergy with PMBN” value is “exhibits synergy” in assay [8] and “resistant to the same combination; also recorded: same synergy but at higher [novobiocin]” in assay [13] (Novo^R A. baumannii). The zone of inhibition at 30 µg/disc in assay [9] (read-out: Zone of inhibition, diameter of the zone of partial growth inhibition (in parentheses)) is 24 mm; in [9] (read-out: Zone of inhibition, diameter of the zone of total growth inhibition), 14 mm; in assay [10], less than 6 mm; in assay [11] it was less than 6 mm; in assay [12] it was less than 6 mm. Moreover, in assay [13] (relative to wild type), the “resistance of gyrB(R150C) point mutant towards novobiocin” value is reported as 300 fold.
